For the first assay, the target named is T1, AHR (Mus musculus, UniProt P30561).
T1 sequence (P30561 1-848 P471L/N533S/M589L): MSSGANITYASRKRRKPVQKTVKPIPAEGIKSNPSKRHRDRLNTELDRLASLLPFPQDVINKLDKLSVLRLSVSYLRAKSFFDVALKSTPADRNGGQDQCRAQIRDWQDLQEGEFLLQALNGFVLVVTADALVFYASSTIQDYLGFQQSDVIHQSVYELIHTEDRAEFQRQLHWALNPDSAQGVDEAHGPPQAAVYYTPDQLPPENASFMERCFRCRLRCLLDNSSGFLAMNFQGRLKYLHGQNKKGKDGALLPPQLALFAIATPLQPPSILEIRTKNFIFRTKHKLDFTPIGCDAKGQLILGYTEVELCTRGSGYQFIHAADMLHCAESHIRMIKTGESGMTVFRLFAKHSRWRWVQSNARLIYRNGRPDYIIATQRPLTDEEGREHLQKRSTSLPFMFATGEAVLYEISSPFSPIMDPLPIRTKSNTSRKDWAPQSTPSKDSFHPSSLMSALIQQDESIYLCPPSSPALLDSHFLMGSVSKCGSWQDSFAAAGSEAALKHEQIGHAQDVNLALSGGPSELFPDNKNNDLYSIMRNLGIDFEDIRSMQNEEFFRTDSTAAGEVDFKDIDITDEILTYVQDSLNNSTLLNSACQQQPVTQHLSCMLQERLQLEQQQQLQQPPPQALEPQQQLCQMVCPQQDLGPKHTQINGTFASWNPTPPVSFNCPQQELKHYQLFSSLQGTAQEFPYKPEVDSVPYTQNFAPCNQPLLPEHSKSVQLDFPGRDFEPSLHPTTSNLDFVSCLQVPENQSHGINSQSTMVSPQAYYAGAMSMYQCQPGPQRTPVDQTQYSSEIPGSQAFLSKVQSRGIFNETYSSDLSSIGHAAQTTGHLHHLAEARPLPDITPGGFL
The experiment in a line: In vitro assay 3: antagonism in mouse cell line (AHR transactivation, firefly luciferase reporter, kynurenic acid prestimulated). It counts as cell-based. To be noted: Hepa 1c1c7 cells, 200 μM kynurenic acid, 20 hours, firefly luciferase reporter, read-out: AHR Antagonism Mouse IC50. As to the method:
Examples were tested in selected biological assays one or more times. When tested more than once, data are reported as either average values or as median values, wherein • the average value, also referred to as the arithmetic mean value, represents the sum of the values obtained divided by the number of times tested, and • the median value represents the middle number of the group of values when ranked in ascending or descending order. If the number of values in the data set is odd, the median is the middle value. If the number of values in the data set is even, the median is the arithmetic mean of the two middle values.
In addition the cells were stably transfected with an AHR inducible firefly luciferase reporter gene construct that carried AHR-binding sites (DRE) in its promoter. Kynurenic acid is an endogenous AHR activating ligand and was used to prestimulate test cells prior to testing the antagonistic properties of compounds.
As positive inhibition control cells without addition of kynurenic acid were incubated. Normalization was done by positive and negative controls.
Firefly luciferase activity was determined by the SteadyGlo Luciferase Assay System (Promega, #E2550).
Take `O=C1NCCNC[C@@H]1Nc1nc2c(Cl)cccc2c2nc(-c3ccc(F)cc3)nn12` [Example 964, (6S)-6-{[7-chloro-2-(4-fluorophenyl)[1,2,4]triazolo[1,5-c]quinazolin-5-yl]amino}-1,4-diazepan-5-one]: the half-inhibitory concentration (IC50) was 4.6 nM.
Same read-out and setting: the figure for `O=C1NCCCC[C@H]1Nc1nc2c(Br)cccc2c2nc(-c3ccc(Cl)cc3)nn12` [Example 830, (3R)-3-{[7-bromo-2-(4-chlorophenyl)[1,2,4]triazolo[1,5-c]quinazolin-5-yl]amino}azepan-2-one] is over 20000 nM.

Staying with this assay, now noted: mouse Hepa 1c1c7 cells, 200 μM kynurenic acid, 20 hours, read-out: AHR Antagonism Mouse IC50.
As for `O=C1NCCC[C@H]1Nc1nc2ccccc2c2nc(-c3ccc(Cl)cc3OC(F)F)nn12` [Example 527, (3R)-3-({2-[4-chloro-2-(difluoromethoxy)phenyl][1,2,4]triazolo[1,5-c]quinazolin-5-yl}amino)piperidin-2-one], the half-inhibitory concentration (IC50) stood at 5.53 nM.
On the same count and under the same terms, with `Cn1cc(-c2nc3c4cccc(Br)c4nc(N[C@@H]4CNCCNC4=O)n3n2)cn1` [Example 267, (6R)-6-{[7-bromo-2-(1-methyl-1H-pyrazol-4-yl)[1,2,4]triazolo[1,5-c]quinazolin-5-yl]amino}-1,4-diazepan-5-one] the figure was 24.7 nM; with `COc1ccc(-c2nc3c4ccccc4nc(NC4CCCNC4=O)n3n2)cc1` (centres unmarked) [Example 28, 3-{[2-(4-methoxyphenyl)[1,2,4]triazolo[1,5-c]quinazolin-5-yl]amino}piperidin-2-one], 6.56 nM; with `O=C1NCCNCC1Nc1nc2cccc(Br)c2c2nc(-c3ccc(F)cc3)nn12` (centres unmarked) [Example 282, 6-{[10-bromo-2-(4-fluorophenyl)[1,2,4]triazolo[1,5-c]quinazolin-5-yl]amino}-1,4-diazepan-5-one], 26.9 nM.
In the case of `O=C1NCCC[C@H]1Nc1nc2ccccc2c2nc(-c3ccc(OC(F)(F)F)cc3)nn12` [Example 332, (3R)-3-({2-[4-(trifluoromethoxy)phenyl][1,2,4]triazolo[1,5-c]quinazolin-5-yl}amino)piperidin-2-one], the concentration for half-maximal inhibition (IC50) was 6.04 nM.
With `N#Cc1ccc(-c2nc3c4cccc(C(F)(F)F)c4nc(N[C@@H]4CCCCNC4=O)n3n2)cc1` [Example 671, 4-[5-{[(3R)-2-oxoazepan-3-yl]amino}-7-(trifluoromethyl)[1,2,4]triazolo[1,5-c]quinazolin-2-yl]benzonitrile], the IC50 worked out at 0.744 nM.
For the compound `O=C1NCCCC[C@@H]1Nc1nc2c(Br)cccc2c2nc(-c3ccc(F)cc3)nn12` [Example 210, (3S)-3-{[7-bromo-2-(4-fluorophenyl)[1,2,4]triazolo[1,5-c]quinazolin-5-yl]amino}azepan-2-one], the 50% inhibitory concentration (IC50) came out at 5.01 nM.
On to `COc1ccc(-c2nc3c4c(C)cccc4nc(N[C@@H]4CNCCNC4=O)n3n2)cc1` [Example 290, (6R)-6-{[2-(4-methoxyphenyl)-10-methyl[1,2,4]triazolo[1,5-c]quinazolin-5-yl]amino}-1,4-diazepan-5-one], for which the IC50 came out at 288 nM.
Consider `COc1ccc(-c2nc3c4cc(C(F)(F)F)ccc4nc(N[C@@H]4CNCCNC4=O)n3n2)cc1` [Example 418, (6R)-6-{[2-(4-methoxyphenyl)-9-(trifluoromethyl)[1,2,4]triazolo[1,5-c]quinazolin-5-yl]amino}-1,4-diazepan-5-one], for which the IC50 came out at 8710 nM.
On the same count and under the same terms, the figure for `COc1ccc(-c2nc3c4cccc(Br)c4nc(N[C@H]4CCCCNC4=O)n3n2)cc1` [Example 211, (3S)-3-{[7-bromo-2-(4-methoxyphenyl)[1,2,4]triazolo[1,5-c]quinazolin-5-yl]amino}azepan-2-one] is 16.7 nM; for `COc1ccc(-c2nc3c4c(Cl)cccc4nc(NC4CNCCNC4=O)n3n2)cc1` (single isomer, unassigned) [Example 297, 6-{[10-chloro-2-(4-methoxyphenyl)[1,2,4]triazolo[1,5-c]quinazolin-5-yl]amino}-1,4-diazepan-5-one] it is 25.1 nM; for `O=C1NCCCC[C@H]1Nc1nc2ccccc2c2nc(-c3ccc(F)nc3)nn12` [Example 639, (3R)-3-{[2-(6-fluoropyridin-3-yl)[1,2,4]triazolo[1,5-c]quinazolin-5-yl]amino}azepan-2-one] it is 0.927 nM.
On the same count and under the same terms, the figure for `COc1ccc(-c2nc3c4c(C)cccc4nc(NC4CNCCNC4=O)n3n2)cc1` (centres unmarked) [Example 192, 6-{[2-(4-methoxyphenyl)-10-methyl[1,2,4]triazolo[1,5-c]quinazolin-5-yl]amino}-1,4-diazepan-5-one] is 34.9 nM; for `O=C1NCCCC[C@H]1Nc1nc2cccc(Cl)c2c2nc(-c3ccc(F)cc3)nn12` [Example 170, (3R)-3-{[10-chloro-2-(4-fluorophenyl)[1,2,4]triazolo[1,5-c]quinazolin-5-yl]amino}azepan-2-one] it is 0.584 nM.
Take `O=C1NCC[C@H]1Nc1nc2c(Br)cccc2c2nc(-c3ccc(F)cc3)nn12` [Example 217, (3R)-3-{[7-bromo-2-(4-fluorophenyl)[1,2,4]triazolo[1,5-c]quinazolin-5-yl]amino}pyrrolidin-2-one]: the IC50 came to 2.54 nM.
As for `COc1ccc(-c2nc3c4cccc(Cl)c4nc(N[C@@H]4CCCCNC4=O)n3n2)cc1` [Example 553, (3R)-3-{[7-chloro-2-(4-methoxyphenyl)[1,2,4]triazolo[1,5-c]quinazolin-5-yl]amino}azepan-2-one], the 50% inhibitory concentration (IC50) worked out at 1.18 nM.
For the compound `COc1cccc(-c2nc3c4ccccc4nc(NC(C)(C)C(N)=O)n3n2)c1` [Example 98, N^2-[2-(3-methoxyphenyl)[1,2,4]triazolo[1,5-c]quinazolin-5-yl]-2-methylalaninamide], the IC50 turned out to be 1140 nM.
Take `COc1ccc(-c2nc3c4ccccc4nc(N[C@H](C)C(=O)O)n3n2)cc1` [Example 658, N-[2-(4-methoxyphenyl)[1,2,4]triazolo[1,5-c]quinazolin-5-yl]-D-alanine]: the half-inhibitory concentration (IC50) worked out at 450 nM.
The same measure, in the same setting: the figure for `COc1ccc(-c2nc3c4c(Cl)cccc4nc(NC4CNCCNC4=O)n3n2)cc1` (centres unmarked) [Example 292, 6-{[10-chloro-2-(4-methoxyphenyl)[1,2,4]triazolo[1,5-c]quinazolin-5-yl]amino}-1,4-diazepan-5-one] is 40.3 nM.
Turning to `O=C1NCCCC[C@@H]1Nc1nc2ccccc2c2nc(-c3ccc(F)cc3)nn12` [Example 71, (3S)-3-{[2-(4-fluorophenyl)[1,2,4]triazolo[1,5-c]quinazolin-5-yl]amino}azepan-2-one], the IC50 worked out at 3.86 nM.
On the same count and under the same terms, the figure for `O=C1NCCNC[C@H]1Nc1nc2ccccc2c2nc(-c3ccc(F)cc3)nn12` [Example 260, (6R)-6-{[2-(4-fluorophenyl)[1,2,4]triazolo[1,5-c]quinazolin-5-yl]amino}-1,4-diazepan-5-one] is 6.75 nM; for `COc1ccc(-c2nc3c4ccccc4nc(N[C@H](CO)C(N)=O)n3n2)cc1` [Example 26, N^2-[2-(4-methoxyphenyl)[1,2,4]triazolo[1,5-c]quinazolin-5-yl]-D-serinamide] it is 16.7 nM.
Take `O=C1NCCNCC1Nc1nc2cccc(Cl)c2c2nc(-c3ccc(F)cc3)nn12` (centres unmarked) [Example 293, 6-{[10-chloro-2-(4-fluorophenyl)[1,2,4]triazolo[1,5-c]quinazolin-5-yl]amino}-1,4-diazepan-5-one]: the 50% inhibitory concentration (IC50) stood at 56.1 nM.
As for `Cn1cc(-c2nc3c4c(C5CC5)cccc4nc(NC4CNCCNC4=O)n3n2)cn1` (centres unmarked) [Example 294, 6-{[10-cyclopropyl-2-(1-methyl-1H-pyrazol-4-yl)[1,2,4]triazolo[1,5-c]quinazolin-5-yl]amino}-1,4-diazepan-5-one], the IC50 was found to be 5430 nM.
